Laboratory results: US20260069539A1, “LIPIDOID COMPOUNDS AND RELATED COMPOSITIONS AND USES” (Poseida Therapeutics, Inc., priority 2023, published 2026)

System: liver cells
Assay: In vivo LNP delivery of fLuciferase mRNA, bioluminescent imaging (BLI) at 4 hr
Set-up: species or system BALB/C mice
Details: for Mean Luciferase Flux: 0.5 mg/kg fLuc mRNA i.v., 4 hr; for Total Flux: 0.5 mg/kg fLuciferase mRNA intravenous, BLI at 4 hr
Method: Adult female BALB/C mice (n=3/group) were intravenously administered 0.5 mg/kg of 5′-CleanCap—fLuciferase mRNA (TriLink Biotech) formulated with the LNP compositions shown in Table 6. One group of mice was treated with vehicle (PBS, Thermo Fisher Scientific, USA) as a negative control.
The location and extent of luciferase expression in treated and control mice were determined at 4 hr for mRNA and 48 hr for DNA by bioluminescent imaging (BLI) of anesthetized mice using an IVIS Lumina in vivo imaging system (Perkin Elmer) according to the manufacturer's instructions. Briefly, mice were anesthetized using isoflurane in oxygen, and placed supine on a heated stage. Mice were then administered D-luciferin (Perkin-Elmer #122799) IP, and BLI was performed.
(§1) The location and extent of luciferase expression in treated and control mice were determined at 4 hr by bioluminescent imaging (BLI) of anesthetized mice using an IVIS Lumina in vivo imaging system (Perkin Elmer) according to the manufacturer's instructions. Briefly, mice were anesthetized using isoflurane in oxygen, and placed supine on a heated stage. Mice were then administered D-luciferin (Perkin-Elmer #122799) IP, and BLI was performed.
as §1
The location and extent of luciferase expression in treated and control mice were determined at 4 hr by bioluminescent imaging (BLI) of anesthetized mice using an IVIS Lumina in vivo imaging system (Perkin Elmer) according to the manufacturer's instructions.
Briefly, mice were anesthetized using isoflurane in oxygen, and placed supine on a heated stage. Mice were then administered D-luciferin (Perkin-Elmer #122799) IP, and BLI was performed.
as §1

[1] = LNP with 40.75 % moles of the compound (DOPC 5.0/Chol 51.75/PEG-DMG 2.5, Lipid:RNA 100)
[2] = LNP with 43.17 % moles of the compound (DOPC 11.96/Chol 43.17/PEG-DMG 1.7, Lipid:RNA 100)
[3] = LNP with 54.0 % moles of the compound (DOPC 10.0/Chol 35.0/PEG-DMG 1.0, Lipid:RNA 100)
[4] = Example 104, experiment of Table 63
[5] = Example 104, experiment of Table 64
[6] = Table 13 experiment, LNP with 50 % moles of the compound (DOPC 10/Chol 38.5/PEG-DMG 1.5, Lipid:RNA 80)

**Q.** With `CC(C)CCCC1CCC(COC(=O)CCN(CCCN(C)CCCN(CCC(=O)OCC2CCC(CCCC(C)C)CC2)CCC(=O)OCC2CCC(CCCC(C)C)CC2)CCC(=O)OCC2CCC(CCCC(C)C)CC2)CC1` (stereo not shown) [COMPOUND NO. 1] as the molecule, how does the “Mean Luciferase Flux” value [1] read?
**A.** 8.79E+09 p/s

**Q.** And the “Mean Luciferase Flux” value [2]?
**A.** 1.01E+10 p/s

**Q.** And the “Mean Luciferase Flux” value [3]?
**A.** 6.15E+08 p/s

**Q.** For `CCCCC[C@H]1CC[C@H](C(=O)OCC(COC(=O)CCCCCN(CCCCCC(=O)OCC(COC(=O)[C@H]2CC[C@H](CCCCC)CC2)COC(=O)[C@H]2CC[C@H](CCCCC)CC2)C[C@@H](C)O)COC(=O)[C@H]2CC[C@H](CCCCC)CC2)CC1` [COMPOUND NO. 57], which “Total Flux” value [4] is on record?
**A.** 9.69E+10 p/s

**Q.** For `CCCCC[C@H]1CC[C@H](C(=O)OCC(COC(=O)CCCCCN(CCCCCC(=O)OCC(COC(=O)[C@H]2CC[C@H](CCCCC)CC2)COC(=O)[C@H]2CC[C@H](CCCCC)CC2)Cc2ccccc2)COC(=O)[C@H]2CC[C@H](CCCCC)CC2)CC1` [COMPOUND NO. 63], which “Total Flux” value [5] is on record?
**A.** 3.48E+05 p/s

**Q.** For `CCCCC[C@H]1CC[C@H](C(=O)OCC(COC(=O)CCCCCN(CCCCCC(=O)OCC(COC(=O)[C@H]2CC[C@H](CCCCC)CC2)COC(=O)[C@H]2CC[C@H](CCCCC)CC2)C[C@@H](O)CO)COC(=O)[C@H]2CC[C@H](CCCCC)CC2)CC1` [COMPOUND NO. 60], which “Total Flux” value [5] is on record?
**A.** 6.51E+10 p/s

**Q.** How did the “Mean Luciferase Flux” value [6] turn out when `CCCCCCCCC(CCCCCCCC)OC(=O)[C@H]1CC[C@H](C(=O)OCCCCCN(CCCO)CCCCCOC(=O)[C@H]2CC[C@H](C(=O)OC(CCCCCCCC)CCCCCCCC)CC2)CC1` [COMPOUND NO. 31] was run?
**A.** 1.00E+10 p/s

**Q.** For `CCCCC[C@H]1CC[C@H](C(=O)OCCCCCCCN(CCO)CCCCCCCOC(=O)[C@H]2CC[C@H](CCCCC)CC2)CC1` [COMPOUND NO. 24], which “Mean Luciferase Flux” value [6] is on record?
**A.** 3.46E+06 p/s

**Q.** With `CCCCC[C@H]1CC[C@H](C(=O)OCC(COC(=O)CCCCCN(CCCCCC(=O)OCC(COC(=O)[C@H]2CC[C@H](CCCCC)CC2)COC(=O)[C@H]2CC[C@H](CCCCC)CC2)C(CO)CO)COC(=O)[C@H]2CC[C@H](CCCCC)CC2)CC1` [COMPOUND NO. 62] as the molecule, how does the “Total Flux” value (Example 104, experiment of Table 65) read?
**A.** 2.20E+11 p/s

**Q.** With `CCCCC[C@H]1CC[C@H](C(=O)OCC(COC(=O)CCCCCN(CCCCCC(=O)OCC(COC(=O)[C@H]2CC[C@H](CCCCC)CC2)COC(=O)[C@H]2CC[C@H](CCCCC)CC2)C[C@H](C)O)COC(=O)[C@H]2CC[C@H](CCCCC)CC2)CC1` [COMPOUND NO. 56] as the molecule, how does the “Total Flux” value [4] read?
**A.** 9.88E+10 p/s

**Q.** For `O=C(CCCCCN(CCCO)CCCCCC(=O)OCC(COC(=O)CCCCC1CCCCC1)COC(=O)CCCCC1CCCCC1)OCC(COC(=O)CCCCC1CCCCC1)COC(=O)CCCCC1CCCCC1` [COMPOUND NO. 66], which “Total Flux” value [4] is on record?
**A.** 3.25E+11 p/s

**Q.** For `CCCCCC(=O)OCC1CCC(COC(=O)C(CCCN(CCCO)CCCC(C(=O)OCC2CCC(COC(=O)CCCCC)CC2)C(=O)OCC2CCC(COC(=O)CCCCC)CC2)C(=O)OCC2CCC(COC(=O)CCCCC)CC2)CC1` (stereo not shown) [COMPOUND NO. 49], which “Total Flux” value [4] is on record?
**A.** 2.00E+11 p/s

**Q.** With `CCCCC[C@H]1CC[C@H](C(=O)OCC(COC(=O)CCCCCN(CCCCCCO)CCCCCC(=O)OCC(COC(=O)[C@H]2CC[C@H](CCCCC)CC2)COC(=O)[C@H]2CC[C@H](CCCCC)CC2)COC(=O)[C@H]2CC[C@H](CCCCC)CC2)CC1` [COMPOUND NO. 52] as the molecule, how does the “Total Flux” value [4] read?
**A.** 1.81E+11 p/s

**Q.** With `CCCCC(CC)CCCCOC(=O)C(CCCN(CCCO)CCCC(C(=O)OCCCCC1CCCCC1)C(=O)OCCCCC1CCCCC1)C(=O)OCCCCC1CCCCC1` (stereo not shown) [COMPOUND NO. 44] as the molecule, how does the “Total Flux” value [4] read?
**A.** 5.73E+08 p/s

**Q.** How did the “Total Flux” value [5] turn out when `CCCCC[C@H]1CC[C@H](C(=O)OCC(COC(=O)CCCCCN(CCC)CCCCCC(=O)OCC(COC(=O)[C@H]2CC[C@H](CCCCC)CC2)COC(=O)[C@H]2CC[C@H](CCCCC)CC2)COC(=O)[C@H]2CC[C@H](CCCCC)CC2)CC1` [COMPOUND NO. 58] was run?
**A.** 4.38E+09 p/s

**Q.** With `CCCCC[C@H]1CC[C@H](C(=O)OCC(COC(=O)CCCCCN(CCCCCC(=O)OCC(COC(=O)[C@H]2CC[C@H](CCCCC)CC2)COC(=O)[C@H]2CC[C@H](CCCCC)CC2)CC(C)O)COC(=O)[C@H]2CC[C@H](CCCCC)CC2)CC1` (mixture of isomers) [COMPOUND NO. 55] as the molecule, how does the “Total Flux” value [4] read?
**A.** 7.89E+10 p/s

**Q.** Which “Total Flux” value [4] does the source give for `O=C(OCCCCC1CCCCC1)C(CCCCCCN(CCCO)CCCCCCC(C(=O)OCCCCC1CCCCC1)C(=O)OCCCCC1CCCCC1)C(=O)OCCCCC1CCCCC1` [COMPOUND NO. 45] here?
**A.** 2.42E+10 p/s

**Q.** Which “Mean Luciferase Flux” value [1] does the source give for `CN(CCN(CCC(=O)OCCOC(=O)CCCCC1CCCCC1)CCC(=O)OCCOC(=O)CCCCC1CCCCC1)CCN(CCC(=O)OCCOC(=O)CCCCC1CCCCC1)CCC(=O)OCCOC(=O)CCCCC1CCCCC1` [COMPOUND NO. 6] here?
**A.** 1.78E+11 p/s

**Q.** What about the “Mean Luciferase Flux” value [2] of the same molecule?
**A.** 3.23E+10 p/s

**Q.** And the “Mean Luciferase Flux” value [3]?
**A.** 4.58E+10 p/s

**Q.** How did the “Mean Luciferase Flux” value [6] turn out when `CCCCC[C@H]1CC[C@H](C(=O)OCCCCCN(CCCO)CCCOC(=O)[C@H]2CC[C@H](CCCCC)CC2)CC1` [COMPOUND NO. 22] was run?
**A.** 2.31E+07 p/s

**Q.** With `CC(C)CCCC1CCC(COC(=O)C(CCCN(C)CCCC(C(=O)OCC2CCC(CCCC(C)C)CC2)C(=O)OCC2CCC(CCCC(C)C)CC2)C(=O)OCC2CCC(CCCC(C)C)CC2)CC1` (stereo not shown) [COMPOUND NO. 43] as the molecule, how does the “Mean Luciferase Flux” value (Table 14 experiment, LNP with 40.75 % moles of the compound (Lipid:RNA 40)) read?
**A.** 1.12E+09 p/s

**Q.** And the “Mean Luciferase Flux” value (Table 14 experiment, LNP with 50 % moles of the compound (Lipid:RNA 80))?
**A.** 1.10E+09 p/s

**Q.** Which “Total Flux” value [5] does the source give for `CCCCC[C@H]1CC[C@H](C(=O)OCC(COC(=O)CCCCCN(CCCCCC(=O)OCC(COC(=O)[C@H]2CC[C@H](CCCCC)CC2)COC(=O)[C@H]2CC[C@H](CCCCC)CC2)C[C@H](O)CO)COC(=O)[C@H]2CC[C@H](CCCCC)CC2)CC1` [COMPOUND NO. 61] here?
**A.** 1.04E+11 p/s

**Q.** Which results are given for `CC(C)CCCC(=O)OCC1CCC(COC(=O)CCN(CCCN(C)CCCN(CCC(=O)OCC2CCC(COC(=O)CCCC(C)C)CC2)CCC(=O)OCC2CCC(COC(=O)CCCC(C)C)CC2)CCC(=O)OCC2CCC(COC(=O)CCCC(C)C)CC2)CC1` (stereo not shown) [COMPOUND NO. 7]?
**A.** Mean Luciferase Flux [1]: 6.41E+10 p/s; Mean Luciferase Flux [2]: 1.84E+11 p/s; Mean Luciferase Flux [3]: 1.55E+11 p/s

**Q.** How did the “Mean Luciferase Flux” value [6] turn out when `CCCCCCCCC(CCCCCC)C(=O)O[C@H]1CC[C@H](OC(=O)CCCCCN(CCO)CCCCCC(=O)O[C@H]2CC[C@H](OC(=O)C(CCCCCC)CCCCCCCC)CC2)CC1` (stereo partly shown) [COMPOUND NO. 27] was run?
**A.** 1.10E+10 p/s

**Q.** Which “Mean Luciferase Flux” value [6] does the source give for `CCCCCCCCC(CCCCCCCC)OC(=O)[C@H]1CC[C@H](C(=O)OCCCCCN(CCO)CCCCCOC(=O)[C@H]2CC[C@H](C(=O)OC(CCCCCCCC)CCCCCCCC)CC2)CC1` [COMPOUND NO. 30] here?
**A.** 2.54E+10 p/s

**Q.** With `CCCCC[C@H]1CC[C@H](C(=O)CCCCN(CCCOC(=O)[C@H]2CC[C@H](CCCCC)CC2)CCCN(C)CCCN(CCCOC(=O)[C@H]2CC[C@H](CCCCC)CC2)CCCOC(=O)[C@H]2CC[C@H](CCCCC)CC2)CC1` [COMPOUND NO. 35] as the molecule, how does the “Mean Luciferase Flux” value (Table 13 experiment, first line of compound 35, printed 50 % moles (Table 12: 40.75 % moles, Lipid:RNA 80)) read?
**A.** 2.35E+09 p/s

**Q.** What about the “Mean Luciferase Flux” value (Table 13 experiment, second line of compound 35, printed 50 % moles (Table 12: 40.75 % moles, Lipid:RNA 40)) of the same molecule?
**A.** 3.13E+09 p/s

**Q.** `CCCCCC(=O)OCC1CCC(COC(=O)CCN(CCCN(C)CCCN(CCC(=O)OCC2CCC(COC(=O)CCCCC)CC2)CCC(=O)OCC2CCC(COC(=O)CCCCC)CC2)CCC(=O)OCC2CCC(COC(=O)CCCCC)CC2)CC1` (stereo not shown) [COMPOUND NO. 8] was tested. Which “Mean Luciferase Flux” value [1] did it give?
**A.** 1.27E+11 p/s

**Q.** And the “Mean Luciferase Flux” value [2]?
**A.** 3.31E+11 p/s

**Q.** What about the “Mean Luciferase Flux” value [3] of the same molecule?
**A.** 2.33E+11 p/s
